Literature values as cited in patent publication EP2033945A1, “Quaternary ammonium salts” (Infineum International Limited, priority 2007, dated 2009).

Conditions: first dissociation constant where the acid is polybasic; from CRC Handbook of Chemistry and Physics, 68th edition, page D161

Row | SMILES | pKa
1 | O=C(O)c1c(O)cc(O)cc1O [2,4,6-trihydroxybenzoic acid] | 1.7
2 | O=C(O)c1ccccc1C(=O)O [phthalic acid] | 2.9
